Patent US10259807B2, “1-(piperazin-1-yl)-2-([1,2,4]triazol-1-yl)-ethanone derivatives” (Idorsia Pharmaceuticals Ltd., priority 2013, dated 2019)

Legend:
hERG K channel = molecular target: T1, hERG K channel (Homo sapiens, UniProt Q12809); test: hERG Q-Patch assay; format: cell-based; details: CHO cells expressing hERG, K+ tail current 3 min after application, mean of two or three experiments
T1 construct: host or cells: CHO
Description: B) hERG Q-Patch assay: Compounds are evaluated for block of the hERG K channel using CHO cells stably expressing the hERG gene (accession number U04270, bSys, Witterswil. Switzerland) and the Patch robotic platform (Sophion, Ballerup, Denmark) in single-cell mode at room temperature. […] When the cells are ˜80% confluent (every 2-3 days), they are either split for further culture or used for electrophysiology. […] Cells are kept in suspension medium at 32-35° C. in the QPatch robot until use, at which time aliquots are transferred to the extracellular solution (in mM: NaCl 150; KCl 4; CaCl2 1.2; MgCl2 1; HEPES 10; pH 7.4 with NaOH) containing 0.3% v/v DMSO and applied to the test plates. K^+ currents are measured with the patch-voltage-clamp technique in the whole-cell configuration with the internal solution (in […]: KCl, 140; NaCl, 10; MgCl2, 1; HEPES, 10; EGTA, 5; pH=7.2 with KOH). […] K^+tail currents are produced from a holding voltage of −80 mV by a 500-ms depolarization to +20 mV followed by a 500-ms repolarization to −40 mV; tail current amplitudes are measured at the end of the repolarization to −40 mV. The pulse pattern is repeated every 10 sec during the experiment, baseline K^+ current is measured after 3 min in extracellular solution, test-solution containing compound is then applied, and K^+ current in presence of compound is measured 3 minutes after application to the cells.

human CXCR3A = molecular target: T2, human CXCR3A (Homo sapiens, UniProt P49682); test: FLIPR assay (CXCL10-induced calcium signal in CHO-K1 cells); format: cell-based; details: CHO-K1 cells expressing human CXCR3A coupled to Galpha(16); CXCL10 agonist 20 nM; mean values
T2 construct: expressed in transfected cells; host or cells: CHO-K1
T2 sequence (P49682 1-368): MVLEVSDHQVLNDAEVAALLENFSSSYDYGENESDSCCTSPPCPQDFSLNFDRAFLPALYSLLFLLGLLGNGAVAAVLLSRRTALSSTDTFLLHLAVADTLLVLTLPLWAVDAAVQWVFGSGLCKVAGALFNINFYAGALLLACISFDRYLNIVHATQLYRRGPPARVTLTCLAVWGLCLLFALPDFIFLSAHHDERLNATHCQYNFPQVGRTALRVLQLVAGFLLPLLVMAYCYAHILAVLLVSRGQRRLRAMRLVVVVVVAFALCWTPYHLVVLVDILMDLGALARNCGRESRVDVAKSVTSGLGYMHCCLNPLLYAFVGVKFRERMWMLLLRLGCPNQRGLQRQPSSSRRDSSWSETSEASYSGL
Description: A) FLIPR assay: The bioactivity of compounds is tested in a fluorometric imaging plate reader (FLIPR: Molecular Devices) using engineered CHO-K1 cells expressing the human CXCR3A (GenBank: AY242128) coupled to a G protein (Galpha(16)). Cells are plated the day prior to bioassay in F12 medium supplemented with 10% FBS and G418 and hygromycin antibiotics to maintain recombinant selection. […] Cells are washed free of excess dye and 60 microliter of wash buffer is added. Stock solutions of test compounds are made up at a concentration of 10 mM in DMSO, and serially diluted in dilution buffer to concentrations required for inhibition dose response curves. After a 10 minute incubation period at 37° C., 10 microliters of each compound dilution are transferred from a compound plate to the plate containing the recombinant cells in the FLIPR instrument according to the manufacturer's instructions. Following basal readings, 10 microliter CXCL10 agonist at a concentration of 20 nM (from Peprotech) is added, again using the FLIPR instrument. Changes in fluorescence are monitored before and after addition of the test compounds. Emission peak values above base level after CXCL10 addition are exported after base line subtraction. The program XLfit is used to fit the data to a single site dose response curve and to calculate IC50 values. The calculated IC50 values may fluctuate depending on the daily assay performance. Fluctuations of this kind are known to those skilled in the art.

T1 sequence (Q12809 whole entry): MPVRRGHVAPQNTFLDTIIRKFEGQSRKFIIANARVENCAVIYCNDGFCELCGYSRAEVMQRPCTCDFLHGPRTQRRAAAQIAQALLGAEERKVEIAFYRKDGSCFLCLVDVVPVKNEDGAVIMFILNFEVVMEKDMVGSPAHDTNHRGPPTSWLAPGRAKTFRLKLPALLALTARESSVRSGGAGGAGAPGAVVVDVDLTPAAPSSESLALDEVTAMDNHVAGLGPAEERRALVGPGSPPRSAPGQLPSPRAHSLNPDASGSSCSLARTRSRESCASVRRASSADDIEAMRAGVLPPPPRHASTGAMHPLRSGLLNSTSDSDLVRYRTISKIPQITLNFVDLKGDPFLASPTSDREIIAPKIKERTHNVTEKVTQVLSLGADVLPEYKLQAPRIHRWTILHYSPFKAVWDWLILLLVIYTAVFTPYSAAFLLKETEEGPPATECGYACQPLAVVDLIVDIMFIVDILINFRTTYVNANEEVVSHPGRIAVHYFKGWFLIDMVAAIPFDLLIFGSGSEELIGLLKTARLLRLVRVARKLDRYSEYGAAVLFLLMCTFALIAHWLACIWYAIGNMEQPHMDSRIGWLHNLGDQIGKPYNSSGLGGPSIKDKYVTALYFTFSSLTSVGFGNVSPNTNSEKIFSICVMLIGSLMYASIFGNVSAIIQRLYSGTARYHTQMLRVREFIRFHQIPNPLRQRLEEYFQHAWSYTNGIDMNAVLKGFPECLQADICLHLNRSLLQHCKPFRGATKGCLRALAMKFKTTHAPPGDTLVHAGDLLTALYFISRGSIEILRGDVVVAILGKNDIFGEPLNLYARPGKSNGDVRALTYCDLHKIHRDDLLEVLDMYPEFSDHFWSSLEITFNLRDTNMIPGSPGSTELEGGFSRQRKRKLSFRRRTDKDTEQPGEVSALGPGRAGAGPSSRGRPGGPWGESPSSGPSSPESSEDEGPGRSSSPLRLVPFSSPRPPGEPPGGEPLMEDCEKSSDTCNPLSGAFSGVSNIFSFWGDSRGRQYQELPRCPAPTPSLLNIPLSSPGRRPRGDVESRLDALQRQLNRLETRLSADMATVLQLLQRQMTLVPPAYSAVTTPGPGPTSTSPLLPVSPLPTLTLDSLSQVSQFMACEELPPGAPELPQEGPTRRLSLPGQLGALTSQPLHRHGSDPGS

Compound	IC50 (human CXCR3A) [µM]	% block (hERG K channel; concentration 300 nM) [%]	% block (hERG K channel; concentration 3000 nM) [%]
Cc1nc(C)n(CC(=O)N2CCN(c3sc(C(F)(F)F)nc3-c3ccc(OC(F)(F)F)cc3)C[C@H]2C)n1 [Example 3, 2-(3,5-Dimethyl-[1,2,4]triazol-1-yl)-1-{(R)-2-methyl-4-[4-(4-trifluoromethoxy-phenyl)-2-trifluoromethyl-thiazol-5-yl]-piperazin-1-yl}-ethanone]	0.0098	19	60
Cc1nc(C)n(CC(=O)N2CCN(c3sc(C(F)(F)F)nc3-c3cnc(OC4COC4)nc3)C[C@H]2C)n1 [Example 30, 2-(3,5-Dimethyl-[1,2,4]triazol-1-yl)-1-((R)-2-methyl-4-{4-[2-(oxetan-3-yloxy)-pyrimidin-5-yl]-2-trifluoromethyl-thiazol-5-yl}-piperazin-1-yl)-ethanone]	0.022	1	6
Cc1nc(C)n(CC(=O)N2CCN(c3sc(C(F)(F)F)nc3-c3ccc(OCC(F)(F)F)cc3)C[C@H]2C)n1 [Example 4, 2-(3,5-Dimethyl-[1,2,4]triazol-1-yl)-1-((R)-2-methyl-4-{4-[4-(2,2,2-trifluoro-ethoxy)-phenyl]-2-trifluoromethyl-thiazol-5-yl}-piperazin-1-yl)-ethanone]	0.012	25	54
Cc1nc(C)n(CC(=O)N2CCN(c3sc(C(F)(F)F)nc3-c3ccc(OC(C)C)cc3)C[C@H]2C)n1 [Example 2, 2-(3,5-Dimethyl-[1,2,4]triazol-1-yl)-1-{(R)-4-[4-(4-isopropoxy-phenyl)-2-trifluoromethyl-thiazol-5-yl]-2-methyl-piperazin-1-yl}-ethanone]	0.016	7	38
CCOc1ncc(-c2nc(C(F)(F)F)sc2N2CCN(C(=O)Cn3nc(C)nc3C)[C@@H](C)C2)cn1 [Example 34, 2-(3,5-Dimethyl-[1,2,4]triazol-1-yl)-1-{(S)-4-[4-(2-ethoxy-pyrimidin-5-yl)-2-trifluoromethyl-thiazol-5-yl]-2-methyl-piperazin-1-yl}-ethanone]	0.0057	3	4
COc1ccc(-c2nc(C(F)(F)F)sc2N2CCN(C(=O)Cn3nc(C)nc3C)[C@H](C)C2)cc1F [Example 10, 2-(3,5-Dimethyl-[1,2,4]triazol-1-yl)-1-{(R)-4-[4-(3-fluoro-4-methoxy-phenyl)-2-trifluoromethyl-thiazol-5-yl]-2-methyl-piperazin-1-yl}-ethanone]	0.02	7	20
Cc1nc(C)n(CC(=O)N2CCN(c3sc(C(F)(F)F)nc3-c3ccc4c(c3)OCO4)C[C@H]2C)n1 [Example 13, 1-[(R)-4-(4-Benzo[1,3]dioxol-5-yl-2-trifluoromethyl-thiazol-5-yl)-2-methyl-piperazin-1-yl]-2-(3,5-dimethyl-[1,2,4]triazol-1-yl)-ethanone]	0.076	9	39
CCOc1ccc(-c2nc(C(F)(F)F)sc2N2CCN(C(=O)Cn3nc(C)nc3C)[C@H](C)C2)cc1 [Example 31, 2-(3,5-Dimethyl-[1,2,4]triazol-1-yl)-1-{(R)-4-[4-(4-ethoxy-phenyl)-2-trifluoromethyl-thiazol-5-yl]-2-methyl-piperazin-1-yl}-ethanone]	0.01	6	14
COc1ccc(-c2nc(C(F)(F)F)sc2N2CCN(C(=O)Cn3nc(C)nc3C)[C@H](C)C2)c(F)c1 [Example 11, 2-(3,5-Dimethyl-[1,2,4]triazol-1-yl)-1-{(R)-4-[4-(2-fluoro-4-methoxy-phenyl)-2-trifluoromethyl-thiazol-5-yl]-2-methyl-piperazin-1-yl}-ethanone]	0.045	10	19
CCOc1ncc(-c2nc(C(F)(F)F)sc2N2CCN(C(=O)Cn3nc(C)nc3CC)[C@H](C)C2)cn1 (single isomer, unassigned) [Example 19]	0.0085	4	12
CCc1ccc(-c2nc(C(F)(F)F)sc2N2CCN(C(=O)Cn3nc(C)nc3C)[C@H](C)C2)cc1 [Example 9, 2-(3,5-Dimethyl-[1,2,4]triazol-1-yl)-1-{(R)-4-[4-(4-ethyl-phenyl)-2-trifluoromethyl-thiazol-5-yl]-2-methyl-piperazin-1-yl}-ethanone]	0.036	12	44
Cc1nc(C)n(CC(=O)N2CCN(c3sc(C(F)(F)F)nc3-c3ccc4c(c3)OCCO4)C[C@H]2C)n1 [Example 14, 1-{(R)-4-[4-(2,3-Dihydro-benzo[1,4]dioxin-6-yl)-2-trifluoromethyl-thiazol-5-yl]-2-methyl-piperazin-1-yl}-2-(3,5-dimethyl-[1,2,4]triazol-1-yl)-ethanone]	0.031	5	14

The next lines start with results.

IC50 (human CXCR3A) [µM]	Compound	% block (hERG K channel; concentration 300 nM) [%]	% block (hERG K channel; concentration 3000 nM) [%]
0.0045	Cc1nc(C)n(CC(=O)N2CCN(c3sc(C(F)(F)F)nc3-c3cnc(C(C)(F)F)nc3)C[C@H]2C)n1 [Example 52, 1-((R)-4-{4-[2-(1,1-Difluoro-ethyl)-pyrimidin-5-yl]-2-trifluoromethyl-thiazol-5-yl}-2-methyl-piperazin-1-yl)-2-(3,5-dimethyl-[1,2,4]triazol-1-yl)-ethanone]	2	6
0.0048	Cc1nc(C)n(CC(=O)N2CCN(c3sc(C(F)(F)F)nc3-c3cnc(N4CCN(C)CC4)nc3)C[C@H]2C)n1 [Example 37, 2-(3,5-Dimethyl-[1,2,4]triazol-1-yl)-1-((R)-2-methyl-4-{4-[2-(4-methyl-piperazin-1-yl)-pyrimidin-5-yl]-2-trifluoromethyl-thiazol-5-yl}-piperazin-1-yl)-ethanone]	2	4
0.0047	Cc1nc(C(C)(C)O)nn1CC(=O)N1CCN(c2sc(C(F)(F)F)nc2-c2cnc(C(F)(F)F)nc2)C[C@H]1C [Example 48, 2-[3-(1-Hydroxy-1-methyl-ethyl)-5-methyl-[1,2,4]triazol-1-yl]-1-{(R)-2-methyl-4-[2-trifluoromethyl-4-(2-trifluoromethyl-pyrimidin-5-yl)-thiazol-5-yl]-piperazin-1-yl}-ethanone]	1	2
0.022	Cc1nc(C)n(CC(=O)N2CCN(c3sc(C(F)(F)F)nc3-c3ccc4c(c3)CCO4)C[C@H]2C)n1 [Example 40, 1-{(R)-4-[4-(2,3-Dihydro-benzofuran-5-yl)-2-trifluoromethyl-thiazol-5-yl]-2-methyl-piperazin-1-yl}-2-(3,5-dimethyl-[1,2,4]triazol-1-yl)-ethanone]	1	25
0.0046	CCOc1ncc(-c2nc(C(F)(F)F)sc2N2CCN(C(=O)Cn3nc(C)nc3C)CC2)cn1 [Example 35, 2-(3,5-Dimethyl-[1,2,4]triazol-1-yl)-1-{4-[4-(2-ethoxy-pyrimidin-5-yl)-2-trifluoromethyl-thiazol-5-yl]-piperazin-1-yl}-ethanone]	2	4
0.0016	CCc1nc(C)n(CC(=O)N2CCN(c3sc(C(F)(F)F)nc3-c3cnc(C(F)(F)F)nc3)C[C@H]2C)n1 (single isomer, unassigned) [Example 46]	13	29
